Measurements as given in publication doi:10.1101/2021.04.08.439011v1 (biorxiv, 2021).

Legend:
[1] = molecular target: YANK2 (Homo sapiens, UniProt Q9NY57); details: 1 µM; binder
[2] = molecular target: PIK3C2G (Homo sapiens, UniProt O75747); details: 1 µM; binder
[3] = molecular target: LATS2 (Homo sapiens, UniProt Q9NRM7); details: 1 µM; binder
[4] = molecular target: JAK3 (Homo sapiens, UniProt P52333); details: JH1 domain catalytic; binder
[5] = molecular target: MLK3 (Homo sapiens, UniProt Q16584); details: 1 µM; binder
[6] = molecular target: CLK3 (Homo sapiens, UniProt P49761); details: 1 µM; binder
[7] = molecular target: GSK3B (Homo sapiens, UniProt P49841); details: 1 µM; binder
[8] = molecular target: S6K1 (Homo sapiens, UniProt P23443); details: 1 µM; binder
[9] = molecular target: MST2 (Homo sapiens, UniProt Q13188); details: 1 µM; binder
[10] = molecular target: GRK2 (Homo sapiens, UniProt P25098); details: 1 µM; binder
[11] = molecular target: MET (Homo sapiens, UniProt P08581); details: 1 µM; binder
[12] = molecular target: NEK1 (Homo sapiens, UniProt Q96PY6); details: 1 µM; binder
[13] = molecular target: CAMKK1 (Homo sapiens, UniProt Q8N5S9); details: 1 µM; binder
[14] = molecular target: CDC2L1 (Homo sapiens, UniProt P21127); details: 1 µM; binder
[15] = molecular target: CDK4-cyclinD1 (Homo sapiens, UniProt P11802); details: 1 µM; binder
[16] = molecular target: MARK2 (Homo sapiens, UniProt Q7KZI7); details: 1 µM; binder
[17] = molecular target: MAP3K1 (Homo sapiens, UniProt Q13233); details: 1 µM; binder
[18] = molecular target: SRPK1 (Homo sapiens, UniProt Q96SB4); details: 1 µM; binder
[19] = molecular target: ULK1 (Homo sapiens, UniProt O75385); details: 1 µM; binder
[20] = molecular target: KIT(L576P) (Homo sapiens, UniProt P10721, L576P); details: 1 µM; binder
[21] = molecular target: SRC (Homo sapiens, UniProt P12931); details: 1 µM; binder
[22] = molecular target: LKB1 (Homo sapiens, UniProt Q15831); details: 1 µM; binder
[23] = molecular target: EGFR (Homo sapiens, UniProt P00533); details: 1 µM; binder
[24] = molecular target: AURKC (Homo sapiens, UniProt Q9UQB9); details: 1 µM; binder
[25] = molecular target: ABL1(E255K) (Homo sapiens, UniProt P00519, E255K); details: phosphorylated; 1 µM; binder
[26] = molecular target: MYLK2 (Homo sapiens, UniProt Q9H1R3); details: 1 µM; binder
[27] = molecular target: LRRK2 (Homo sapiens, UniProt Q5S007); details: 1 µM; binder
[28] = molecular target: BMPR1A (Homo sapiens, UniProt P36894); details: 1 µM; binder
[29] = molecular target: HIPK1 (Homo sapiens, UniProt Q86Z02); details: 1 µM; binder
[30] = molecular target: RET(M918T) (Homo sapiens, UniProt P07949, M918T); details: 1 µM; binder

EGFR, sequence (P00533 whole entry): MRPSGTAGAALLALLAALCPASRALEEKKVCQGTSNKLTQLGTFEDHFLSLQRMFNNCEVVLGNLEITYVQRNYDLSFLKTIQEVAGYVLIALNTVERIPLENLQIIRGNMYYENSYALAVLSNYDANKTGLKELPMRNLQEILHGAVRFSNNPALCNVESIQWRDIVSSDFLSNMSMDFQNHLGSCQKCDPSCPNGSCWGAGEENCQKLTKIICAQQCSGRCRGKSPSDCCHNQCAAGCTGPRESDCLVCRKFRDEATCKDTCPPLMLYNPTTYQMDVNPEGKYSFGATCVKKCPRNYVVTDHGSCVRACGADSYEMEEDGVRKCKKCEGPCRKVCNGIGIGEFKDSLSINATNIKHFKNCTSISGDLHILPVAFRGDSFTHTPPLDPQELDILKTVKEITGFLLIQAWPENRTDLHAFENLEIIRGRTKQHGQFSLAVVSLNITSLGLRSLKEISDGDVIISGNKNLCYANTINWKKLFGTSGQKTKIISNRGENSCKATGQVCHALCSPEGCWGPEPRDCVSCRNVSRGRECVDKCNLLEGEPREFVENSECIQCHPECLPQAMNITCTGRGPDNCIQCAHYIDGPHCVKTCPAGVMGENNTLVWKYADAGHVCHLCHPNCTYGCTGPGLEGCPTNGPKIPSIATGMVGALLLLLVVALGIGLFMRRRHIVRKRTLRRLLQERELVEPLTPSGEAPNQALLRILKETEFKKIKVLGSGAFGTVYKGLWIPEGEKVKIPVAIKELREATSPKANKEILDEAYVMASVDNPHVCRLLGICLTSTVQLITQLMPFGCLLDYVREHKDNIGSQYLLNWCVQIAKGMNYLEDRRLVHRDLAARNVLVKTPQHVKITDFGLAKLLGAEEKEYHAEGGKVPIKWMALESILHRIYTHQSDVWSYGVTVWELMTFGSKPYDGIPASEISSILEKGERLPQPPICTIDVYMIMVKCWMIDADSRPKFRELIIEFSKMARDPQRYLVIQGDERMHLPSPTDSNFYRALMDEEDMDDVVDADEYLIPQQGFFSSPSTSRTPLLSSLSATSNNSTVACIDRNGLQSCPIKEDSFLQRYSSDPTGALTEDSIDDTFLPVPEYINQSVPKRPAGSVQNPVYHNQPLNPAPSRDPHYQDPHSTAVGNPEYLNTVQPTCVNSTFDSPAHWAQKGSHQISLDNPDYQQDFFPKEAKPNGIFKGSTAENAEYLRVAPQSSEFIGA
GSK3B, sequence (P49841 whole entry): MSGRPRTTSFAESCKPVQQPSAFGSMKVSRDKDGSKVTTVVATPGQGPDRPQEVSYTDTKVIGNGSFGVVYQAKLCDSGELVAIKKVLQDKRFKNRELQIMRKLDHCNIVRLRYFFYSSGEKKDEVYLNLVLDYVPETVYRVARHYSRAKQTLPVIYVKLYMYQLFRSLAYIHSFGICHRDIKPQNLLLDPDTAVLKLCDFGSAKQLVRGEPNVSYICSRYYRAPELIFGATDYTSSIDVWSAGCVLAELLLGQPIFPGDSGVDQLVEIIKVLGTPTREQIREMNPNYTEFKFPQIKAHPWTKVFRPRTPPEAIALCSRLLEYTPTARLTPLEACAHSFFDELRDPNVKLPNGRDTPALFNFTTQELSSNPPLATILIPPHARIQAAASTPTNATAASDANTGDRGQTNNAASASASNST
JAK3, sequence (P52333 whole entry, the tested form may be a part): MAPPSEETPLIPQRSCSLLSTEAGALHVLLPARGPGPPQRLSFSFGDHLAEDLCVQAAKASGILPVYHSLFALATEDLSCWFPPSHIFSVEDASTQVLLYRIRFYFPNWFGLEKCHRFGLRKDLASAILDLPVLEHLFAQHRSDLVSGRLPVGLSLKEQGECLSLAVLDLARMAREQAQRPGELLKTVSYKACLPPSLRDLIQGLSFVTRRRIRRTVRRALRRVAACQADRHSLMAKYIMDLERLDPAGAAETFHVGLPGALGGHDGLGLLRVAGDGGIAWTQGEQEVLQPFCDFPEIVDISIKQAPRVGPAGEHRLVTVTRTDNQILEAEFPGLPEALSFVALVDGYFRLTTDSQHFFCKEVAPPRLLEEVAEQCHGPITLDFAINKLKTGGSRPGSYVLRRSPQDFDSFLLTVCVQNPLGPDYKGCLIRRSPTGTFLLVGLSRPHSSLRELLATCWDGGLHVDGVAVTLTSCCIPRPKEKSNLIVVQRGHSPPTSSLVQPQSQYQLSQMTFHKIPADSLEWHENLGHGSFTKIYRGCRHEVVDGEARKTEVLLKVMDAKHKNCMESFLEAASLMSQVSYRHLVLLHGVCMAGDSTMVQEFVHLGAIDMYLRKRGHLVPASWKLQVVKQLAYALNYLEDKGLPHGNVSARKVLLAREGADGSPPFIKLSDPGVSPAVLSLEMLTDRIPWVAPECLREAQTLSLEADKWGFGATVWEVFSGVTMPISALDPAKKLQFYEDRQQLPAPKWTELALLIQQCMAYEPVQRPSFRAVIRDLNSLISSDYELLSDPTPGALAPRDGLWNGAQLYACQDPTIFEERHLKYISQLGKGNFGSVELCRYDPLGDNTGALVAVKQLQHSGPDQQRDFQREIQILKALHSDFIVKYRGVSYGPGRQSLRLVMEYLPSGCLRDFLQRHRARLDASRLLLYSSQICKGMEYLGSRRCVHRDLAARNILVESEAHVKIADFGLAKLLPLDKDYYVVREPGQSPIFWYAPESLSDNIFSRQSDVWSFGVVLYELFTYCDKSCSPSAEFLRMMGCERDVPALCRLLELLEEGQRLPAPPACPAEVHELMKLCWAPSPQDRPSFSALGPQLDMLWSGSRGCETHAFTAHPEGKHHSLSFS
CDK4-cyclinD1, sequence (P11802 whole entry): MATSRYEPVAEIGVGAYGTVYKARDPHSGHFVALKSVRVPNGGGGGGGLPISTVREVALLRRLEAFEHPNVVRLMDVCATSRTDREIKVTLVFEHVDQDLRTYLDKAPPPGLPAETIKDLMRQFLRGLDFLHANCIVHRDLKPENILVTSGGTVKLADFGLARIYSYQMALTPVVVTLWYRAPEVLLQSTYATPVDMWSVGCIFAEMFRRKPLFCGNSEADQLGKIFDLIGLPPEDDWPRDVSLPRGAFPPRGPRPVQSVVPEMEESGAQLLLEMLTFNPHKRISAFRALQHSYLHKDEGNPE
CDK4-cyclinD1, sequence (P24385 whole entry partner): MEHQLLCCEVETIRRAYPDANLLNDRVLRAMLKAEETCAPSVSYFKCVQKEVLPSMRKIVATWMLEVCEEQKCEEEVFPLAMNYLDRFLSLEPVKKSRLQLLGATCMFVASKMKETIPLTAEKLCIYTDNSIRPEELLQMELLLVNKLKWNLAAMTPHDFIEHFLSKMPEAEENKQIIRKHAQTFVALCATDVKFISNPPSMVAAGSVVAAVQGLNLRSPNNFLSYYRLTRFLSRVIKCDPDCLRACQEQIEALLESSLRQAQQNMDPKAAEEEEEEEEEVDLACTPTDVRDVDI
SRC, sequence (P12931 whole entry): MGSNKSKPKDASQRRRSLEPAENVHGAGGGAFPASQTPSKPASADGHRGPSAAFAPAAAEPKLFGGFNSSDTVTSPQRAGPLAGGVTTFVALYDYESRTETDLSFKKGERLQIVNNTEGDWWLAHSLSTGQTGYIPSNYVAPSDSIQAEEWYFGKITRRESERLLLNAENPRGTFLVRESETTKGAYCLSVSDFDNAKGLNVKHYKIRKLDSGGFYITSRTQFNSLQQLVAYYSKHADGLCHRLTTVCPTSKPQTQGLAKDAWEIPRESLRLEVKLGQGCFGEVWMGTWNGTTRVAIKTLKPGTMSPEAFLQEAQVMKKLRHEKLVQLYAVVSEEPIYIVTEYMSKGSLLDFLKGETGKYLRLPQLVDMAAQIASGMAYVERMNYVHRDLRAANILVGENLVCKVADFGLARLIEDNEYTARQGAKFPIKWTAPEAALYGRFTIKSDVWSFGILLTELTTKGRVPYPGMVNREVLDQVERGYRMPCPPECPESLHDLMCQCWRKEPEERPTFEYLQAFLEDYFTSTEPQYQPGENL
AURKC, sequence (Q9UQB9 whole entry): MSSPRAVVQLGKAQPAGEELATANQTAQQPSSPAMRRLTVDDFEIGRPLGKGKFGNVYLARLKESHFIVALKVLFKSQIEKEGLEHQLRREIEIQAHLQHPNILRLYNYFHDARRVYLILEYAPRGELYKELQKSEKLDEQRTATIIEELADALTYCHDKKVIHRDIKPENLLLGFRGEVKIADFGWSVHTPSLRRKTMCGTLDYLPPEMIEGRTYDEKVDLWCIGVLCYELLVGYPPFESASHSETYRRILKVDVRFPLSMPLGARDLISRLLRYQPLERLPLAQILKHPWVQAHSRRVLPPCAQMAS
SRPK1, sequence (Q96SB4 whole entry): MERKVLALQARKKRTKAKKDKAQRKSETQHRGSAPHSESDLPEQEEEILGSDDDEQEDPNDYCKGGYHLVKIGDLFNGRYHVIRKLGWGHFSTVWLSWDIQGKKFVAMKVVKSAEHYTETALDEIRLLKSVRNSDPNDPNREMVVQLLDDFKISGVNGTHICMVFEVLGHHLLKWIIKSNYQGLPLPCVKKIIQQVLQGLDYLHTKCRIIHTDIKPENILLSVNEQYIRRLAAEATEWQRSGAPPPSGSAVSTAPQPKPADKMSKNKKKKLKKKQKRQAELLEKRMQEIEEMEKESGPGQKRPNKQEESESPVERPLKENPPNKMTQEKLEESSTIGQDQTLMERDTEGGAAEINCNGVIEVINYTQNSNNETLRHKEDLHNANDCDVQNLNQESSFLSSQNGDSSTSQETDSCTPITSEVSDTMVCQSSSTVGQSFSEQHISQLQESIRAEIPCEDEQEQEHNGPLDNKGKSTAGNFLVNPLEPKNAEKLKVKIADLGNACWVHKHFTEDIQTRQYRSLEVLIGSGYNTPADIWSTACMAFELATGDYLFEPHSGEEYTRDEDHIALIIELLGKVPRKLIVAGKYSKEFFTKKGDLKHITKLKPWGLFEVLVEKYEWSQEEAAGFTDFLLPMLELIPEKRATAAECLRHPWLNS

CNc1ncc2cc(-c3ccc(-c4cccc(C)n4)cc3Cl)c(=O)n(C[C@H]3OC[C@H](N)CO3)c2n1 [compound 6, G-5555]
Percent Control [1]: 0%
Percent Control [2]: 100%
Percent Control [3]: 8%
Percent Control [4]: 90%
Percent Control [5]: 100%
Percent Control [6]: 100%
Percent Control [7]: 100%
Percent Control [8]: 58%
Percent Control [9]: 27%
Percent Control [10]: 100%
Percent Control [11]: 40%
Percent Control [12]: 100%
Percent Control [13]: 100%
Percent Control [14]: 97%
Percent Control [15]: 99%
Percent Control [16]: 49%
Percent Control [17]: 98%
Percent Control [18]: 98%
Percent Control [19]: 85%
Percent Control [20]: 100%
Percent Control [21]: 100%
Percent Control [22]: 100%
Percent Control [23]: 88%
Percent Control [24]: 20%
Percent Control [25]: 100%
Percent Control [26]: 81%
Percent Control [27]: 100%
Percent Control [28]: 85%
Percent Control [29]: 100%
Percent Control [30]: 100%
